Data published in ChEMBL document CHEMBL4043116, “KBE009: An antimalarial bestatin-like inhibitor of the Plasmodium falciparum M1 aminopeptidase discovered in an Ugi multicomponent reaction-derived peptidomimetic library” (Bioorg Med Chem, 2017).
Calls of active or inactive are those of the source. Unless noted, the rule behind the calls is not given here.

Assays:
[1] = system: Plasmodium falciparum; assay: Antimalarial activity against synchronized ring stage of […] Plasmodium falciparum 3D7 infected in human erythrocytes assessed as parasite growth at 25 uM after 72 hrs by YOYO-1 staining based flow cytometric analysis relative to control; format: functional
[2] = Inhibition of recombinant Plasmodium falciparum M1 aminopeptidase using Ala-AMC as substrate pretreated for 30 mins followed by substrate addition by fluorescence assay
[3] = system: Plasmodium falciparum; assay: Antimalarial activity against synchronized ring stage of […] Plasmodium falciparum 3D7 infected in human erythrocytes assessed as parasite growth at 25 uM after 48 hrs by Giemsa staining based microscopic analysis; format: functional, cell-based
[4] = system: Erythrocyte; assay: Hemolytic activity against human erythrocytes at 25 uM measured after 48 hrs; format: ADME, cell-based
[5] = system: Plasmodium falciparum; assay: Inhibition of recombinant Plasmodium falciparum M1 aminopeptidase assessed as residual activity at 20 uM using Ala-AMC as substrate pretreated for 30 mins followed by substrate addition by fluorescence assay relative to control
[6] = system: Plasmodium falciparum; assay: Antimalarial activity against synchronized ring stage of […] Plasmodium falciparum 3D7 infected in human erythrocytes after 48 hrs by Giemsa staining based microscopic analysis; format: functional, cell-based; conditions: for IC50: 3D7, 48 h
[7] = system: Plasmodium falciparum; assay: (§1) Antimalarial activity against asynchronized chloroquine-resistant Plasmodium falciparum FcB1/Columbia assessed as reduction in [3H]-hypoxanthine incorporation by measuring parasite growth at 5 uM pretreated for 24 hrs followed by [3H]-hypoxanthine addition after 24 hrs by microbeta scintillation counting analysis relative to control; format: functional; set-up: scale not given: the % may be the effect or the level left
[8] = system: Plasmodium falciparum; assay: as §1, with “50” for “5”; format: functional; set-up: scale not given: the % may be the effect or the level left
[9] = Selectivity index, ratio of Ki for recombinant Plasmodium falciparum M1 aminopeptidase to Ki for porcine kidney cortex aminopeptidase N
[10] = target: T1, Aminopeptidase N (Sus scrofa, UniProt P15145); assay: Inhibition of porcine kidney cortex aminopeptidase N using Leu-p-nitroanilide as substrate pretreated for 30 mins followed by substrate addition […]
T1 sequence (P15145 whole entry): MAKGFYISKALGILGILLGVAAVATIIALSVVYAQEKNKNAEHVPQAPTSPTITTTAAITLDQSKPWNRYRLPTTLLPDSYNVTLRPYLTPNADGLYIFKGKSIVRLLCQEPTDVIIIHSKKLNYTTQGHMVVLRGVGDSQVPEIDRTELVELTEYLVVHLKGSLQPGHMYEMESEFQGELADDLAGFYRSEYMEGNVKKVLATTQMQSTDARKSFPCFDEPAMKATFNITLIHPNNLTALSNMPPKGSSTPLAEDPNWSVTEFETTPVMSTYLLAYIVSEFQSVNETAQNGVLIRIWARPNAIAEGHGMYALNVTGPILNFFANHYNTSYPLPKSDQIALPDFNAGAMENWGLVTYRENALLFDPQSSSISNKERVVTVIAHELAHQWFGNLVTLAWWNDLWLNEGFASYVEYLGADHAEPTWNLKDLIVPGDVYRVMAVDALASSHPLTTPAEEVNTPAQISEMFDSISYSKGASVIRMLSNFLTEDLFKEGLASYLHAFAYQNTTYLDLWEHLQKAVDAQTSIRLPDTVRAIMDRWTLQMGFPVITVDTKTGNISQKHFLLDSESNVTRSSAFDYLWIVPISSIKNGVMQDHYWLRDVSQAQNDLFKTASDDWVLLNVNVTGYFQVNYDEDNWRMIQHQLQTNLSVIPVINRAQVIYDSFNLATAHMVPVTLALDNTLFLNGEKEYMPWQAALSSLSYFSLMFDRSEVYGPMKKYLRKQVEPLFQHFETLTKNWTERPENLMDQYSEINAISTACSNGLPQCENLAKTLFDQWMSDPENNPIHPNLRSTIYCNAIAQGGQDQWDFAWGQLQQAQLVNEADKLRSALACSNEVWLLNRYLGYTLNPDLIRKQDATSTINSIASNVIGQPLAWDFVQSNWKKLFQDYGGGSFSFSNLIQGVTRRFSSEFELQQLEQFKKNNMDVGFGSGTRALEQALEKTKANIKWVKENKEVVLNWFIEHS

[11] = system: Plasmodium falciparum; assay: Antimalarial activity against asynchronized chloroquine-resistant Plasmodium falciparum FcB1/Columbia assessed as reduction in [3H]-hypoxanthine incorporation pretreated for 24 hrs followed by [3H]-hypoxanthine addition after 24 hrs by microbeta scintillation counting analysis; format: functional
[12] = system: Plasmodium falciparum; assay: Inhibition of Plasmodium falciparum M1 aminopeptidase at 200 uM using Ala-AMC as substrate by spectrofluorimetric assay
[13] = system: Plasmodium falciparum; assay: Inhibition of Plasmodium falciparum M1 aminopeptidase at 20 uM using Arg-AMC as substrate measured after 5 mins by fluorescence assay relative to control
[14] = Inhibition of Plasmodium falciparum M1 aminopeptidase using Ala-AMC as substrate by spectrofluorimetric assay
[15] = system: HUVEC; assay: Cytotoxicity against HUVEC assessed as reduction in cell viability up to 200 uM by MTT assay; format: cell-based; conditions: human
[16] = target: T2, Aminopeptidase N (Sus scrofa) (UniProt P15145); assay: Inhibition of porcine kidney cortex aminopeptidase N up to 100 uM using Leu-p-nitroanilide as substrate […]
T2 sequence (whole entry): T1 sequence (P15145 whole entry)

[17] = system: Plasmodium falciparum; assay: Antimalarial activity against synchronized ring stage of […] Plasmodium falciparum 3D7 infected in human erythrocytes assessed as parasite growth at 1 uM after 72 hrs by YOYO-1 staining based flow cytometric analysis relative to control; format: functional

Compound	Activity [1] [%]	Activity [3]	Activity [4]	Activity [5] [%]	Activity [7]	Activity [8]	also measured
O=C(NC1CCCCC1)C(N[C@@H](Cc1ccccc1)C(=O)O)c1ccccc1 (stereo partly specified)	42	Active	Non-Toxic	24			Ki [2]: 1.9 µM; IC50 [6]: 26 µM
O=C(NC1CCCCC1)C(c1ccccc1)N1CCC[C@H]1C(=O)O (stereo partly specified)	90	Active	Non-Toxic	100			
CC(C)C[C@H](N)C(=O)N(CC(=O)NC(C)(C)C)[C@@H](Cc1ccccc1)C(=O)O	87	Active	Non-Toxic	61	92.5 - 99%	71 - 83.5%	
O=C(CN[C@@H](Cc1c[nH]c2ccccc12)C(=O)O)NC1CCCCC1	43	Active	Non-Toxic	29	83 - 92.5%	31 - 39.5%	Ki [2]: 4.3 µM; Ratio Ki [9]: 5.6; Ki [10]: 24 µM; IC50 [6]: 25 µM; IC50 [11]: 37 µM
CC[C@H](C)[C@H](NC(C(=O)NC1CCCCC1)c1ccccc1)C(=O)O (stereo partly specified)	77	Active	Non-Toxic	96	84.5 - 92.5%	39.5 - 41.5%	
CC(C)C[C@@H](C(=O)O)N(CC(=O)NCc1ccccc1)C(=O)[C@@H](N)Cc1ccccc1	89	Active	Non-Toxic	91	91 - 93.5%	79 - 100%	
O=C(NC1CCCCC1)C(c1cccnc1)N1CCC[C@H]1C(=O)O (stereo partly specified)	83	Active	Non-Toxic	99			
COc1ccc(C(C(=O)NC(C)(C)C)N(C(=O)[C@@H](N)Cc2ccccc2)[C@@H](CC(C)C)C(=O)O)cc1OC (stereo partly specified)	95	Active	Non-Toxic	48	56 - 99%	42.5 - 99%	
O=C(CN1CCC[C@H]1C(=O)O)NC1CCCCC1	82	Active	Non-Toxic	98			
CC(C)C[C@@H](C(=O)O)N(C(=O)[C@@H](N)Cc1ccccc1)C(C(=O)NC(C)(C)C)c1ccccc1 (stereo partly specified)	30	Active	Non-Toxic	69	49 - 100%	2 - 2.5%	inhibition [12]: inactive
CC(C)C[C@H](N)C(=O)N(CC(=O)NCc1ccccc1)[C@H](C(=O)O)C(C)C	65	Active	Non-Toxic	85	76.5 - 79%	67 - 78%	
CC(C)C[C@@H](C(=O)O)N(C(=O)[C@@H](N)Cc1ccccc1)C(C(=O)NC(C)(C)C)c1cccnc1 (stereo partly specified)	86	Active	Non-Toxic	64	16 - 99%	1 - 11.5%	
CC(C)C[C@@H](C(=O)O)N(C(=O)[C@@H](N)Cc1ccccc1)C(C(=O)NCc1ccccc1)c1ccccc1 (stereo partly specified)	66	Active	Non-Toxic	83	65 - 90%	39 - 55.5%	
O=C(CN[C@@H](Cc1ccccc1)C(=O)O)NCc1ccccc1	38	Active	Non-Toxic	23			Ki [2]: 0.9 µM; inhibition [6]: Active
CC(C)C[C@H](NC(=O)[C@@H](O)[C@H](N)Cc1ccccc1)C(=O)O [UBENIMEX]	36		Non-Toxic	1.2			inhibition [13]: 50%; Ki [2]: < 0.16 µM; IC50 [14]: < 0.31 µM; IC50 [6]: 21 µM; IC50 [11]: 3.3 µM
O=C(CN[C@@H](Cc1ccccc1)C(=O)O)NC1CCCCC1	53	Active	Non-Toxic	48	84.5 - 99%	21.5 - 56%	Ki [2]: 6.1 µM; Ratio Ki [9]: 3.4; Ki [10]: 21 µM; IC50 [6]: 37 µM; IC50 [11]: 29 µM
CC(C)C[C@@H](C(=O)O)N(CC(=O)NC(C)(C)C)C(=O)[C@@H](N)Cc1ccccc1	45	Active	Non-Toxic	97	87.5 - 91.5%	48.1 - 79.5%	
CC(C)C[C@@H](C(=O)O)N(C(=O)[C@@H](N)Cc1ccccc1)C(C(=O)NCc1ccccc1)c1ccco1 (stereo partly specified)	54	Active	Non-Toxic	48	83.5 - 93.5%	2.5 - 4.5%	Activity [15]: Non-Toxic; Ki [2]: 0.4 µM; IC50 [14]: 82 µM; inhibition [16]: inactive; Ratio Ki [9]: > 250; IC50 [6]: 18 µM; IC50 [11]: 16 µM
CC[C@H](C)[C@H](NCC(=O)NC1CCCCC1)C(=O)O	93	Active	Non-Toxic	100	79.5 - 86.5%	1.5 - 4.5%	
CCN(CC)CCCC(C)Nc1ccnc2cc(Cl)ccc12 (stereo unspecified) [CHLOROQUINE]							Activity [17]: 25.9%
COc1ccc(C(N[C@@H](CC(C)C)C(=O)O)C(=O)NC2CCCCC2)cc1OC (stereo partly specified)	41	Active	Non-Toxic	98			
CC(C)C[C@H](NC(C(=O)NC1CCCCC1)c1cccnc1)C(=O)O (stereo partly specified)	96	Active	Non-Toxic	94			
CC(C)C[C@H](NC(C(=O)NC1CCCCC1)c1ccccc1)C(=O)O (stereo partly specified)	82	Active	Non-Toxic	40	85.5 - 93%	15.5 - 23%	
CC(C)C[C@H](NCC(=O)NC1CCCCC1)C(=O)O	60	Active	Non-Toxic	96	97 - 99%	69 - 90%	
CC(C)C[C@@H](C(=O)O)N(C(=O)[C@@H](N)Cc1ccccc1)C(C(=O)NC(C)(C)C)c1ccco1 (stereo partly specified)	96	Active	Non-Toxic	42	94.5 - 99%	81.5 - 95%	
CC(C)C[C@@H](C(=O)O)N(C(=O)[C@@H](N)Cc1ccccc1)C(C(=O)NCC(=O)O)c1ccccc1 (stereo partly specified)	88	Active	Non-Toxic	73	97 - 99%	89 - 97.5%	
